Where “and” joins values, the source holds several entries; their conditions need not be identical. Identical values can stand only once. Like-named read-outs stand apart in the source and are kept apart here.
Key:
[1] = molecular target: T1, recombinant human ghrelin receptor (HEK293/GRLN) (Homo sapiens, UniProt Q92847); assay: Ghrelin inverse agonist potency (EC50) with IP-1 (IP-One HTRF) assay; format: cell-based; details: IP-1 assay
T1 construct: expressed in transfected cells
Summary of the method: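 IP-1 accumulation was measured by HTRF (IP1-d2/Tb-cryptate, 620/665 nm read after 1 hour at room temperature) following 1 hour of compound treatment at 37° C. Cells were HEK293 stably expressing human ghrelin receptor, plated a day earlier on Matrigel. Inverse agonist potency was reported as EC50.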

[2] = molecular target: T2, GHSR-1a (HEK293/GHSR1a cell line) (Homo sapiens, UniProt Q92847); assay: Ghrelin antagonist potency (IC50) with calcium FLIPR assay, ghrelin 10 nM; format: cell-based
T2 construct: expressed in transfected cells; host or cells: HEK293/GHSR1a cell line
T2 sequence (Q92847 whole entry): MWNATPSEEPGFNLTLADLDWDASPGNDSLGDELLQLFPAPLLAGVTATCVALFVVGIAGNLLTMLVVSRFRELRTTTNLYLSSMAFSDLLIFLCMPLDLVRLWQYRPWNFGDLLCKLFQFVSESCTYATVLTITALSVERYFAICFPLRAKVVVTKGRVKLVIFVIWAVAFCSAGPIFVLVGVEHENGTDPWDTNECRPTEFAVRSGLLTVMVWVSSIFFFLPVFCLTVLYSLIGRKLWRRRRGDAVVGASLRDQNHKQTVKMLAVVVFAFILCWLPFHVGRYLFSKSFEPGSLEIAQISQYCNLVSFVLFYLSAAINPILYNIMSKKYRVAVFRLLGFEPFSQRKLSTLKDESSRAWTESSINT
Summary of the method: (§1)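 Calcium flux was followed 2 min by FLIPR in dye-loaded HEK293/GHSR1a cells. For antagonist IC50, compound and ghrelin (10 nM) were co-added at t=20 sec and inhibition of the ghrelin signal fitted; for agonist EC50, compound alone was added at t=20 sec and dose-response fitted.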

[3] = Metabolic stability in human liver microsomes; format: in vitro ADME
Protocol: (§2) Metabolic Stability Study
(§3) The metabolic stability of compounds in human, dog, rat and mouse liver microsomes was performed according the experimental conditions reported below:
(§4) • a) Prepare the following 5 stock solutions: • 1. Test compound stock solutions: dilute 10 mM solution of dextromethorphan (Dtr) in DMSO, 10 mM solution of diphenhydramine (DPA) in DMSO, 10 mM solution of omeprazole (Ome) in DMSO, 10 mM solution of verapamil (Ver) in DMSO, and 10 mM of an inverse agonist compound in DMSO to 0.25 mM solution each with acetonitrile/water (70/30). • 2. Buffer: 100 mM potassium phosphate Buffer (PBS) at pH 7.4 • 3. Liver microsomes (20 mg/ml): Thaw in 37° C. water bath quickly • 4. 2000 μL: of NADPH regenerating system (1.3 mM). Place this system on ice before use:
(§5) • 5. […] The test compound concentration in the wells, measured by LC-MS/MS, represents the concentration at time=0. • f) To determine the test compound concentration when t≠0, pre-incubate the NADPH regenerating system and the incubation plate containing the remaining 320 μL of incubation mixture (microsomes protein and test compound) for 5 minutes at 37° C. • g) Start the incubation reaction by adding 80 μL NADPH regenerating system to each well containing the remaining 320 μL incubation mixture. • h) After 10 min., 30 min., and 90 min. of incubation at 37° C., transfer 100 μL of the incubation mixture (microsomes protein, test compound, and NADPH) into the wells of a stop plate pre-filled with 300 μL of the cold quench solution. Shake well. • i) Centrifuge the stop plate at 5000×g for 10 minutes. Collect and dilute the supernatant 3 times with distilled water. Sample and analyze the test compound concentration for all the wells by LC-MS/MS. Animal PK Studies via i.v. (intravenous), p.o. (orally) and s.c. (subcutaneous) administrations

[4] = Metabolic stability in mouse liver microsomes; format: in vitro ADME
Protocol: as §2, §3, §4, §5

[5] = molecular target: T2, GHSR-1a (HEK293/GHSR1a cell line); assay: Ghrelin agonist potency (EC50) with calcium FLIPR assay; format: cell-based
Summary of the method: as §1

[6] = inverse agonist potency, read-out: EC50 (Activity)
[7] = ghrelin antagonist potency, read-out: IC50 (Activity)
[8] = HEK293/GRLN, read-out: Activity EC50 (ghrelin inverse agonist potency)
[9] = HEK293/GHSR1a, read-out: Activity EC50/EMax: EC50 (ghrelin agonist potency)
[10] = HEK293/GHSR1a, ghrelin 10 nM, read-out: Activity IC50 (ghrelin antagonist potency)

T1 sequence (Q92847 whole entry): as above

| SMILES | EC50 [1, 6] | IC50 [2, 7] | Metabolic Stability Study H = human [3] | Metabolic Stability Study M = mouse [4] | EC50 [1, 8] | EC50 [5, 9] | IC50 [2, 10] | EC50 ([1]; ghrelin inverse agonist potency, read-out: Activity EC50) | EC50 ([5]; ghrelin agonist potency, read-out: Activity EC50/EMax) |
| --- | --- | --- | --- | --- | --- | --- | --- | --- | --- |
| C[C@H](NC(=O)Nc1ccc(S(=O)(=O)Nc2cnc(N)nc2)cc1)c1cccc(Cl)c1Cl [H1108] | 117 nM | 422 nM | 38.7 µL/min/mg | 47.5 µL/min/mg | – | – | – | – | – |
| C[C@H](NC(=O)Nc1ccc(S(=O)(=O)Nc2ccnc(N)n2)cc1)c1cccc(Cl)c1Cl [H1125, (S)-N-(2-aminopyrimidin-4-yl)-4-(3-(1-(2,3-dichlorophenyl)ethyl)ureido) benzenesulfonamide] | 93.3 nM | 893 nM | 10.7 µL/min/mg | 14.9 µL/min/mg | – | – | – | – | – |
| C[C@H](NC(=O)Nc1ccc(S(=O)(=O)Nc2ccc(N)cn2)cc1)c1cccc(Cl)c1Cl.Cl [H1127, (S)-N-(5-aminopyridin-2-yl)-4-(3-(1-(2,3-dichlorophenyl)ethyl)ureido) benzenesulfonamide] | 94.7 nM | 861 nM | 41 µL/min/mg | 59.5 µL/min/mg | – | – | – | – | – |
| COc1ccc(C(C)NC(=O)Nc2ccc(S(=O)(=O)Cc3ccc4c(c3)CNC4)cc2)c2ccccc12 (stereo not drawn) [H1154, 1-(4-((isoindolin-5-ylmethyl)sulfonyl)phenyl)-3-(1-(4-methoxynaphthalen-1-yl)ethyl)urea] | 29.8 nM and 26.8 nM | 126 nM | 19.2 µL/min/mg | 22.9 µL/min/mg | – | – | – | – | – |
| CC(NC(=O)Nc1ccc(S(=O)(=O)Nc2ccc3c(c2)CNC3)cc1)c1ccccc1.Cl (stereo not drawn) [H1156, N-(isoindolin-5-yl)-4-(3-(1-phenylethyl)ureido) benzenesulfonamide] | 4.26 nM | 10.3 nM | 18.1 µL/min/mg | 12.9 µL/min/mg | – | – | – | – | – |
| CC(NC(=O)N(O)c1ccc(S(=O)(=O)Nc2ccc3c(c2)CNC3)cc1)c1cccc2ccccc12 (stereo not drawn) [H1166, 4-(1-hydroxy-3-(1-(naphthalen-1-yl)ethyl)ureido)-N-(isoindolin-5-yl)benzenesulfonamide] | 7.1 nM | 9 nM | 19.9 µL/min/mg | 14.5 µL/min/mg | – | – | – | – | – |
| Cl.O=C(NCc1ccccc1)Nc1ccc(S(=O)(=O)Cc2ccc3c(c2)CNC3)cc1 [H1179, 1-benzyl-3-(4-((isoindolin-5-ylmethyl)sulfonyl)phenyl)urea] | 37.4 nM | 143 nM | 14.9 µL/min/mg | < 10 µL/min/mg | – | – | – | – | – |
| CN1Cc2ccc(CS(=O)(=O)c3ccc(NC(=O)NCc4ccccc4)cc3)cc2C1 [H1193, 1-benzyl-3-(4-(((2-methylisoindolin-5-yl)methyl)sulfonyl)phenyl)urea] | 64 nM | 324 nM | 49.8 µL/min/mg | 43.7 µL/min/mg | – | – | – | – | – |
| CC(NC(=O)Nc1ccc(S(=O)(=O)Cc2ccc3c(c2)CN(Cc2ccccc2)C3)cc1)c1ccccc1 (stereo not drawn) [H1219, 1-(4-(((2-benzylisoindolin-5-yl)methyl)sulfonyl)phenyl)-3-(1-phenylethyl)urea] | 163 nM | 7.77 nM | H > 500 M > 500 R = not reported D = not reported μL/min/mg | H > 500 M > 500 R = not reported D = not reported μL/min/mg | – | – | – | – | – |
| CCN1Cc2ccc(CS(=O)(=O)c3ccc(NC(=O)NC(C)c4ccccc4)cc3)cc2C1 (stereo not drawn) [H1221, 1-(4-(((2-ethylisoindolin-5-yl)methyl)sulfonyl)phenyl)-3-(1-phenylethyl)urea] | 38.7 nM | 8.1 nM | 111.2 µL/min/mg | 107.7 µL/min/mg | – | – | – | – | – |
| CN1Cc2ccc(CS(=O)(=O)c3ccc(NC(=O)NC(c4ccccc4)C(F)(F)F)cc3)cc2C1 (stereo not drawn) [H1227, 1-(4-(((2-methylisoindolin-5-yl)methyl)sulfonyl)phenyl)-3-(2,2,2-trifluoro-1-phenylethyl)urea] | 175 nM | 38.4 nM | 99.4 µL/min/mg | 79.9 µL/min/mg | – | – | – | – | – |
| CCN1Cc2ccc(C(C)S(=O)(=O)c3ccc(NC(=O)NC(C)c4ccccc4)cc3)cc2C1 (stereo not drawn) [H1234, 1-(4-((1-(2-ethylisoindolin-5-yl)ethyl)sulfonyl)phenyl)-3-(1-phenylethyl)urea] | 15.4 nM | 42.6 nM | 149.8 µL/min/mg | 122.7 µL/min/mg | – | – | – | – | – |
| CCC(NC(=O)Nc1ccc(S(=O)(=O)Cc2ccc3c(c2)CN(C)C3)cc1)c1ccccc1 (stereo not drawn) [H1235, 1-(4-(((2-methylisoindolin-5-yl)methyl)sulfonyl)phenyl)-3-(1-phenylpropyl)urea] | 6.1 nM | 32 nM | 102.4 µL/min/mg | 87.1 µL/min/mg | – | – | – | – | – |
| Cc1oc(=O)oc1COC(=O)N1Cc2ccc(CS(=O)(=O)c3ccc(NC(=O)NC(C)c4ccccc4)cc3)cc2C1 (stereo not drawn) [H1256, (5-methyl-2-oxo-1,3-dioxol-4-yl)methyl 5-(((4-(3-(1-phenylethyl)ureido)phenyl)sulfonyl)methyl)isoindoline-2-carboxylate] | – | – | 268.4 µL/min/mg | 272.6 µL/min/mg | 124 nM | > 30000 nM | 90 nM | – | – |
| CC(NC(=O)Nc1ccc(S(=O)(=O)Cc2ccc3c(c2)CNC3)cc1)c1cccc(Cl)c1 (stereo not drawn) [H1260, 1-(1-(3-chlorophenyl)ethyl)-3-(4-((isoindolin-5-ylmethyl)sulfonyl)phenyl)urea] | – | – | 38.9 µL/min/mg | 24.7 µL/min/mg | 4.4 nM | > 30000 nM | 3.7 nM | – | – |
| CC(NC(=O)Nc1ccc(S(=O)(=O)Cc2ccc3c(c2)CN(C)C3)cc1)c1cccc(Cl)c1 (stereo not drawn) [H1266, 1-(1-(3-chlorophenyl)ethyl)-3-(4-(((2-methylisoindolin-5-yl)methyl)sulfonyl)phenyl)urea] | – | – | 169.4 µL/min/mg | 106.1 µL/min/mg | 19.1 nM | > 30000 nM | 24.2 nM | – | – |
| C[C@@H](NC(=O)Nc1ccc(S(=O)(=O)Cc2ccc3c(c2)CN(C)C3)cc1)c1ccccc1 [H1300, (R)-1-(4-(((2-methylisoindolin-5-yl)methyl)sulfonyl)phenyl)-3-(1-phenylethyl)urea] | – | – | 124.3 µL/min/mg | 42.1 µL/min/mg | – | > 30000 nM | – | – | – |
| C[C@@H](NC(=O)Nc1ccc(S(=O)(=O)Cc2ccc3c(c2)CN(C)C3)cc1)c1ccccc1 [H1356, (R)-1-(4-(((2-methylisoindolin-5-yl)methyl)sulfonyl)phenyl)-3-(1-phenylethyl)urea] | – | – | 382.5 µL/min/mg | 126 µL/min/mg | – | > 30000 nM | – | – | – |
| CC(NC(=O)Nc1c(F)cc(S(=O)(=O)Cc2ccc3c(c2)CNC3)cc1F)c1ccccc1.O=C(O)C(F)(F)F (stereo not drawn) [H1404, 1-(2,6-difluoro-4-((isoindolin-5-ylmethyl)sulfonyl)phenyl)-3-(1-phenylethyl)urea] | – | – | 10 µL/min/mg | 19 µL/min/mg | – | > 30000 nM | 1620 nM | – | – |
| COc1cc(S(=O)(=O)Cc2ccc3c(c2)CCNC3)ccc1NC(=O)N[C@H](C)c1cccc(Cl)c1Cl [H1481, (R)-1-(1-(2,3-dichlorophenyl)ethyl)-3-(2-methoxy-4-(((1,2,3,4-tetrahydroisoquinolin-6-yl)methyl)sulfonyl)phenyl)urea] | – | – | < 10 µL/min/mg | 13.2 µL/min/mg | – | – | – | 0.2 nM | > 30000 nM |

From US10501479B2, “Benzenesulfonyl-asymmetric ureas and medical uses thereof” (HELSINN HEALTHCARE SA, priority 2016, dated 2019)
